In ChEMBL document CHEMBL1146941, “Synthesis of pyrazinamide Mannich bases and its antitubercular properties” (2006):
In brackets after ≈: the same amount, converted by molar mass.

Tested on: Mycobacterium tuberculosis
Test: Antimycobacterial activity against multi drug resistant Mycobacterium tuberculosis
Assay type: functional

Which MIC90 does the source give for `O=C(NCN1CCN(c2ccccn2)CC1)c1cnccn1` here?
The MIC90 was greater than 25 mg/L.

For `O=C(NCN1CCN(c2ccc(C(F)(F)F)cc2)CC1)c1cnccn1`, which MIC90 is on record?
Its MIC90 is 1.76 mg/L (≈ 4.82 µM).

Which MIC90 does the source give for `CN1CCN(CNC(=O)c2cnccn2)CC1` here?
The MIC90 was greater than 25 mg/L.

`O=C(NCN1CCN(Cc2ccccc2)CC1)c1cnccn1` was tested. Which MIC90 did it give?
Its MIC90 is greater than 25 mg/L.

How did the MIC90 turn out when `O=C(NCN1CCN(c2cccc(Cl)c2)CC1)c1cnccn1` was run?
The MIC90 was 6.25 mg/L (≈ 18.8 µM).

`O=C(NCN1CCN(c2ccc(Cl)cc2)CC1)c1cnccn1` was tested. Which MIC90 did it give?
Its MIC90 is 12.5 mg/L (≈ 37.7 µM).

With `COc1ccc(N2CCN(CNC(=O)c3cnccn3)CC2)cc1` as the compound, how does the MIC90 read?
Its MIC90 is greater than 25 mg/L.

For `O=C(NCN1CCN(c2ccc([N+](=O)[O-])cc2)CC1)c1cnccn1`, which MIC90 is on record?
Its MIC90 is 6.25 mg/L (≈ 18.3 µM).

For `COc1cccc(N2CCN(CNC(=O)c3cnccn3)CC2)c1`, which MIC90 is on record?
The MIC90 was greater than 25 mg/L.

How did the MIC90 turn out when `O=C(NCN1CCN(c2ccccc2)CC1)c1cnccn1` was run?
Its MIC90 is greater than 25 mg/L.

For `CCn1cc(C(=O)O)c(=O)c2cc(F)c(N3CCN(CNC(=O)c4cnccn4)CC3)cc21`, which MIC90 is on record?
The MIC90 was 0.78 mg/L (≈ 1.72 µM).

Which MIC90 does the source give for `O=C(NCN1CCN(c2cc3c(cc2F)c(=O)c(C(=O)O)cn3C2CC2)CC1)c1cnccn1` here?
The MIC90 was 0.78 mg/L (≈ 1.67 µM).

Which MIC90 does the source give for `CCn1cc(C(=O)O)c(=O)c2cc(F)c(N3CCN(CNC(=O)c4cnccn4)CC3)c(F)c21` here?
The MIC90 was 0.78 mg/L (≈ 1.65 µM).

`O=C(NCN1CCN(c2ncccn2)CC1)c1cnccn1` was tested. Which MIC90 did it give?
Its MIC90 is greater than 25 mg/L.

How did the MIC90 turn out when `COc1ccccc1N1CCN(CNC(=O)c2cnccn2)CC1` was run?
Its MIC90 is greater than 25 mg/L.

With `O=C(NCN1CCN(c2ccc(F)cc2)CC1)c1cnccn1` as the compound, how does the MIC90 read?
Its MIC90 is 1.76 mg/L (≈ 5.58 µM).

`NC(=O)c1cnccn1` [PYRAZINAMIDE] was tested. Which MIC90 did it give?
The MIC90 was greater than 25 mg/L.
